Where a SMILES comes first, the peptide text is derived from it. [ ]: non-standard residue; d: D form. ξ: configuration not given here. Hyp = O=C(O)[C@@H]1C[C@@H](O)CN1; Nva = CCC[C@H](N)C(=O)O; ξPip = O=C(O)C1CCCCN1; Aib = CC(C)(N)C(=O)O
What was measured:
striatal cells = experiment: Striatal cell culture, 30 nM okadaic acid injury, MTT viability; format: cell-based, Wistar rats; settings: for neuroprotection against okadaic acid induced loss of cell viability: okadaic acid (30 nM), 24 h, MTT, striatal cell culture (FIGS. 3, 4, 6)
Description: (§1) Two pregnant Wistar rats (gestational day 18) underwent Caesarean section according to approved procedures from the Animal Ethics Committee of the University of Auckland. The Wistar dams were anaesthetised in a CO2-enriched atmosphere and sacrificed by subsequent spinal cord dislocation. The embryos were removed from their embryonic sacs and decapitated. After incisions into the skull with fine scissors, the embryonic brain was removed with a fine spatula. Striatal tissue was separated from neocortical tissue under the microscope and placed into serum-free DMEM/F-12 medium supplemented with penicillin/streptomycin (100 u/mL). Tissue underwent 15 trituration steps using a P1000 pipettor to obtain dissociated cells, which were centrifuged for 5 min at 250 G (4° C.) and the supernatant was discarded. Cells were re-suspended into 1 mL DMEM/F-12 medium and were kept on ice. Cell suspension (400,000 cells/cm2) was applied to 0.1 mg/mL poly-L-lysine pre-coated 96-well plates (3 h at 37° C.) and the volume was increased up to 100 μL with DMEM/F-12+5% FBS. Cells were cultivated at 37° C. in 100% humidity in a 5% CO2 atmosphere. After 24 h the medium was changed to serum-free Neurobasal/B27. Cell medium was changed every 3 days and maintained until 8 days in vitro (DWV).
(§2) Striatal cells were injured after 2, 3, 7 or 8 days in vitro. The injury paradigm involved 30 nM okadaic acid treatment with simultaneous administration of a GPE analog of this invention for 24 h. 1 μL of 3 μM okadaic acid stock solution together with 1 μL of GPE analog dissolved in PBS (vehicle received 2 μL of PBS) were incubated for 24 h with the striatal cells. Subsequently, 20 μL MTT (5 mg/mL in PBS) was added for 4 h. The reaction was terminated by addition of 100 μL 4% sodium dodecyl sulfate (SDS) solution. After 16-24 h incubation time, photometric extinction values are read at 595 nm. The difference between the vehicle and the okadaic acid injury condition was calculated. This value was set as the theoretical 100% recovery value. Measured values for the tested compounds were expressed in percentage of the 100% value. The unpaired Student's t-test was used for statistical analysis.

[1] = test system: N-methyl-D-aspartate (NMDA) receptor; settings: background statement; cited from earlier work
IGF-1 receptor = IGF-1 receptor (Homo sapiens, UniProt P08069); settings: background statement; cited from earlier work
IGF-1 receptor, sequence (P08069 31-736 limits assumed): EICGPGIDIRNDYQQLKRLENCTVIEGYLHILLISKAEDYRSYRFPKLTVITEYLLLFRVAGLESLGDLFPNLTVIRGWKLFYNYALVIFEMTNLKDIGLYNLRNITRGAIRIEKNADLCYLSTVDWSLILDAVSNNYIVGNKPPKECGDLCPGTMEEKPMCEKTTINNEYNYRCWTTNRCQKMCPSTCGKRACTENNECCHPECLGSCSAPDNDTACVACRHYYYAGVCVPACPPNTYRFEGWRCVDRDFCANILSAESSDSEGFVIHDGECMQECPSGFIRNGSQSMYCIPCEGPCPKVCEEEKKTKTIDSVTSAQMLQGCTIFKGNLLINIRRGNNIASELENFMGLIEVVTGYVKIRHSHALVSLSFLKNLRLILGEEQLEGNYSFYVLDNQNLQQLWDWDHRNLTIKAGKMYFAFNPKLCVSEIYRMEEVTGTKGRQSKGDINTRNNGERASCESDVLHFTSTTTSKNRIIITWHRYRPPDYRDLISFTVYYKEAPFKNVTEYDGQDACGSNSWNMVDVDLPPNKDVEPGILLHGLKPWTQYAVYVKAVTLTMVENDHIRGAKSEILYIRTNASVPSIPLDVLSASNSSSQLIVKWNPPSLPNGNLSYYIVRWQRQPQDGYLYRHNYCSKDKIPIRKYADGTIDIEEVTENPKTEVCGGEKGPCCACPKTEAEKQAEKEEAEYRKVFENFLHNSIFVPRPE
IGF-1 receptor, sequence (P08069 741-1367 partner limits assumed): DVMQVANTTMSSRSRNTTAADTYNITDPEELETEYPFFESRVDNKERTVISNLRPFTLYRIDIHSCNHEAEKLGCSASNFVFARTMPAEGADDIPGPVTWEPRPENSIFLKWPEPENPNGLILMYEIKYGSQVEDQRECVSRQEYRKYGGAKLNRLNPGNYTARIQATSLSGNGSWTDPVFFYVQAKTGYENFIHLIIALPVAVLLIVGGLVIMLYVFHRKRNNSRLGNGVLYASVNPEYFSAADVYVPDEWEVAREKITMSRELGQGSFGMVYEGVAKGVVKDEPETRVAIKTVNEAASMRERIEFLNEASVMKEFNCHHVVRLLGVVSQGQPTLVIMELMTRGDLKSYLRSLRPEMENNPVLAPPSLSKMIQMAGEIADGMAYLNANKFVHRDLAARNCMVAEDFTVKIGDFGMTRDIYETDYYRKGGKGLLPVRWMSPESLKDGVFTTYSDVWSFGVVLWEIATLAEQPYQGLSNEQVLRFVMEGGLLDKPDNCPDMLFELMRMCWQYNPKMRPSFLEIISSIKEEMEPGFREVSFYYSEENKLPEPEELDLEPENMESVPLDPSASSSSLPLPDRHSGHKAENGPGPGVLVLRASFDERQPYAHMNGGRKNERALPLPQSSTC

cortical cell culture = experiment: Rat cortical dissociated cell culture, okadaic acid injury, MTT viability; settings: 100 nM okadaic acid
Experimental: (§3) Embryonic E18/19 wistar rats were used for the generation of dissociated cortical cell cultures. The rear portion (occipital cortex-area 17/18 of the visual cortex) of the cortical plate is used for the generation of the cultures. Cells were grown for 3-10 DIV in one part of serum-free medium and one part of rat cortex-derived cultivated astrocytic-conditioned medium (ACM).
(§4) 96-well tissue culture plates were coated with 0.2 mg/ml poly-L-lysine followed by 2 μg/ml laminin. Subsequently 60 μl of ACM were added per well and plate was stored at 37° C. until plating of cortical cells.
(§5) Whole cortices of P1/2 wistar pups were collected into separate tubes containing 4 ml DMEM-1 cortex per tube. The tissues were triturated a few times with a 5 ml sterile pipette to break up them up into smaller pieces. Each tube was poured separately into a reagent reservoir and triturated once with a 5 ml syringe and 18 gauge drawing needle. The mixture was then filtered through a 100 μm cell strainer into a 50 ml centrifuge tube. The strainer was washed with 5 ml DMEM. The cell solution was extended with DMEM to 50 ml of volume. The solution was then centrifuged for 5mins at 350g at RT. The cells were resuspended in 40 ml of DMEM+10% FBS. The cells were then reconstituted into a 75 cm^2 cell flask and incubated at 37° C./10% CO2/100% humidity in […]. […] The medium was replaced after 1 day with fresh DMEM+10% FBS. The cell growth was monitored and media+FBS replaced twice weekly until the cells were confluent (˜10-14 days). Once the confluency reached, the cells were washed once with 20 ml sterile PBS. Cells were incubated for 3 days in 30 ml Neurobasal medium+B27 supplement to maintain cells under serum-free conditions. Cell supernatant was then filter through a 0.22 μm sterile filter and frozen in aliquots at −80° C.
(§6) The tissues were stored in PBS+glucose solution on ice until all dissection was completed. Tissue material was centrifuged at 350g for 5 mins at RT. The supernatant was removed and cell pellets were incubated in 5 ml trypsin/EDTA solution (Invitrogen) for 8 mins at 37° C. Proteolysis was stopped by addition of one part of DMEM+10% FBS. Subsequently, the tissued were centrifuged at 350g for 5 mins at RT. The pellet was collected, washed (centrifugation) twice in NB/B27 medium (Invitrogen) and resuspended in 1 ml NB/B27 medium. Tissue was transferred into a petri dish and triturated twice with a glass pasteur pipette attached to a pipette to break up large pieces of tissue. The tissue was then triturated twice using a 1 ml syringe and 22 gauge needle and passed through a 100 μm cell strainer to remove remaining large tissue pieces. The cells were washed with 1 ml NB/B27. The number of viable neurons was counted and the percentage of cell viability determined. […] The cortical cells were incubated at 37° C./10% CO2/100% humidity.
(§7) In order to induce neuronal injury the phosphatase 1/2A antagonist okadaic acid is added for 24 hrs. Simultaneously, an analog of GPE of this invention was administered. After 24 hrs metabolic activity was measured by addition of MTT for 2-4 hrs followed by addition of SDS-solution and photometric end point measurement at 595 nm.
(§8) Student's unpaired t-test is used for testing for statistical significance when comparing uninjured controls with the injured neuronal rescue agent containing conditions.

[2] = Striatal cell culture, 30 nM okadaic acid injury, MTT viability; format: cell-based, Wistar rats; settings: Wistar, rat; okadaic acid alone, other studies FIGS. 2-6 (striatal and cortical cultures); read-out: decrease in numbers of viable cells
Description: as §1, §2

cerebellar cells = experiment: Cerebellar microexplant culture, 3-NP/glutamate injury, count of cells with neurites; format: cell-based, Wistar rats; settings: toxin alone, cerebellar cell culture (FIG. 7)
Experimental: Postnatal day 3, 4 or 8 Wistar rats were used for the study. The rats were sacrificed and placed in ice for 1 minute, decapitated and the cerebellum removed and placed on ice. Cerebellum tissue was placed in 1 ml of 0.65% glucose-supplemented PBS (10 μl 65% stock D (+)glucose/1 ml PBS) in a large Petri dish, chopped up into smaller sections and triturated with a 1 ml insulin syringe via a 23 gauge (0.4 mm) needle, and then squirted back into the glucose solution in the Petri dish. The tissue was sieved through (125 µm pore size) and centrifuged (2 minutes at 60×g) twice to exchange the medium into serum-free BSA-supplemented START V medium (Biochrom, Germany). […]
After explants were exposed to a GPE analog of this invention for the study period, cells were then rinsed in PBS and then fixed in increasing concentrations of paraformaldehyde (500 μl of 0.4% PFA was applied; then 1.2% PFA; then 3% PFA and finally 4% PFA (each fixation step: 2-3 minutes). Finally, the microexplants were rinsed in PBS. Neurons in the explants were then evaluated for morphology (presence of neurites) and counted as live cells per microscopic field. Four fields displaying highest cell density were counted per cover slip and the data presented as mean ±standard error of the mean (SEM); n=4 each. Statistical significance was evaluated by using the non-paired Student's t-test.

[3] = Rat cortical dissociated cell culture, okadaic acid injury, MTT viability; settings: Wistar, rat
Experimental: as §3, §4, §5, §6, §7, §8

[4] = 24 hrs, MTT, cortical cell culture (FIG. 1)

NCC(=O)N1CCCCC1C(=O)N[C@@H](CCC(=O)O)C(=O)O (stereo partly drawn) [analog 66, Glycyl-D,L-pipecolinyl-L-glutamic Acid] (H-Gly-[ξPip]-Glu-OH)
statistical significance of neuroprotective effect (striatal cells; at concentrations of 100 nM, 100 mM and 1 mM, okadaic acid, striatal (FIG. 6)): statistically significant effects
neuroprotection against okadaic acid induced loss of cell viability (striatal cells): neuroprotective

NCC(=O)N1CCC[C@H]1C(=O)N[C@@H](CCC(=O)O)C(=O)O [GPE, Glycyl-L-Prolyl-L-Glutamate]
binding affinity to NMDA receptor [1]: low affinity
binding to IGF-1 receptor (IGF-1 receptor): does not bind
neuroprotection against okadaic acid induced loss of cell viability (cortical cell culture; [4]): reversed the okadaic acid induced loss of cell viability

C=C1[C@@H](O)[C@@H]2O[C@]3(CC[C@H](/C=C/[C@@H](C)[C@@H]4CC(C)=C[C@@]5(O[C@H](C[C@@](C)(O)C(=O)O)CC[C@H]5O)O4)O3)CC[C@H]2O[C@@H]1[C@@H](O)C[C@H](C)[C@H]1O[C@@]2(CCCCO2)CC[C@H]1C [okadaic acid, reference compound]
cytotoxicity at 24 h [2]: 10 to 50%
decrease in the number of cells having neurites (cerebellar cells): over 80%
cytotoxicity at 24 h [3]: ~30%

CC(C)(N)C(=O)N1CCC[C@H]1C(=O)N[C@@H](CCC(=O)O)C(=O)O [analog 64, Aminoisobutryl-L-prolyl-L-glutamic acid] (H-[Aib]-Pro-Glu-OH)
protection from the loss of neural cell viability induced by okadaic acid (striatal cells; at 1 mM, 30 nM okadaic acid, striatal (FIG. 4)): complete protection
neuroprotective efficacy compared with GPE (striatal cells; concentration range 100 μM to 1 mM, 30 nM okadaic acid, striatal (FIG. 4)): more effective than GPE
neuroprotection against okadaic acid induced loss of cell viability (striatal cells): neuroprotective

CC1(C)SCN(C(=O)CN)[C@@H]1C(=O)N[C@@H](CCC(=O)O)C(=O)O [analog 49, Glycyl-L-thia-5,5-dimethylprolyl-L-glutamic acid]
neuroprotection against okadaic acid induced loss of cell viability (cortical cell culture; [4]): neuroprotective
protection against loss of neural cell viability caused by okadaic acid (cortical cell culture; concentration range 10 nM to 10 μM, cortical cell culture (FIG. 1)): 100%

NCC(=O)N1C[C@H](O)C[C@H]1C(=O)N[C@@H](CCC(=O)O)C(=O)O [analog 60, Glycyl-trans-4-hydroxy-L-prolyl-L-glutamic acid] (H-Gly-[Hyp]-Glu-OH)
statistical significance of neuroprotective effect (striatal cells; at concentrations of 100 nM and 100 μM and 1 mM, 30 nM okadaic acid, striatal (FIG. 3)): statistically significant effects
neuroprotection against okadaic acid induced loss of cell viability (striatal cells): neuroprorotective

CCC[C@H](NC(=O)[C@@H]1CCCN1C(=O)CN)C(=O)O [analog 65, Glycyl-L-prolyl-L-Norvaline] (H-Gly-Pro-[Nva]-OH)
protection against loss of cell viability induced by okadaic acid (cortical cell culture; at nearly every concentration tested (10 nM to 1 mM), cortical cell culture (FIG. 5)): 100%
neuroprotection against okadaic acid induced loss of cell viability (cortical cell culture; broad range of concentrations, 10 nM to 1 mM, cortical cell culture (FIG. 5)): neuroprotective
